Laboratory results reported in patent US8575091B1, “Amylin analogues and pharmaceutical compositions thereof” (Novo Nordisk A/S, priority 2012, dated 2013).
Read-outs that look alike come from different tables or passages of the source. Numbered stars: 1 amine (or outer) side, 2 acyl side, 3 side chain; on linkers, the order of the positions; unused ones are H or OH. Bridge positions count the residues as written; N and C are the ends. Side chains are listed from the residue outwards. Peptide text beside a SMILES is read from it. * marks the point of attachment. C20 diacid = O=C(O)CCCCCCCCCCCCCCCCCCC(=O)*; γGlu = O=C(O)[C@H](CCC(=O)[*:2])N[*:1]; AEEA = NCCOCCOCC(=O)O

Assays:
human amylin receptor = molecular target: T1, human amylin receptor (Homo sapiens, UniProt O60896+P30988); test: Assay (V) binding to the human amylin receptor (SPA, 125I-rat amylin); details: for IC50: human amylin receptor membranes, SPA, read-out: hAmylin-R bind IC50
T1 construct: expressed in transfected cells
T1 sequence (P30988 25-474): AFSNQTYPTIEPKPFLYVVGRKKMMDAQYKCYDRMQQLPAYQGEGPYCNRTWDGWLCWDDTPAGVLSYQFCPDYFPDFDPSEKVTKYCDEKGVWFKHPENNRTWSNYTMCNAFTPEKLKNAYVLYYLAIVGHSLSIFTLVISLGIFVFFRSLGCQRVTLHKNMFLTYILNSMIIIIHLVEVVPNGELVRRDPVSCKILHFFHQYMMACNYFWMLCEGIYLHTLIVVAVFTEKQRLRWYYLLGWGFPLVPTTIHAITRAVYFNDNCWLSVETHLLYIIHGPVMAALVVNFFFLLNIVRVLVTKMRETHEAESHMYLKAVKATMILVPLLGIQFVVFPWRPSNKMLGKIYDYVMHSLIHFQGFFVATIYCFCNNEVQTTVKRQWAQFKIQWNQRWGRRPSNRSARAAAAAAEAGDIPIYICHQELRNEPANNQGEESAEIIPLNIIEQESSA
T1 sequence (O60896 24-148 partner): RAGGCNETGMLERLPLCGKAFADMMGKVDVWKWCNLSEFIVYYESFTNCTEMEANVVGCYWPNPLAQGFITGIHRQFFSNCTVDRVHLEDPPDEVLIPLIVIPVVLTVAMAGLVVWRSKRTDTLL
Method in brief: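 SPA competition binding on membranes from Amylin 3(a)/CRE-luc cells, 35 ng/μL membranes with 0.05 mg/well beads. Buffer 50 mM Hepes pH 7.4, 1 mM CaCl2, 5 mM MgCl2, 0.1% OA, 0.02% Tween20. IC50 from one-site competition fit as affinity measure.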

[1] = molecular target: T2, human calcitonin receptor (Homo sapiens, UniProt P30988); test: Assay (VII) binding to the human calcitonin receptor (SPA, 125I-Calcitonin); details: read-out: hCTR bind IC50;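 also: cell membranes coupled to SPA beads, competitive displacement read by scintillation counting, IC50 derived from a one-site competition fit as a measure of receptor affinity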
T2 construct: expressed in transfected cells
T2 sequence (P30988 25-474): T1 sequence (P30988 25-474)

[2] = molecular target: T2, human calcitonin receptor; test: Assay (II)a functional assay, human calcitonin receptor (CRE luciferase, BHK cells);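 also: luminescence from a CRE-driven luciferase reporter, read by single photon counting after cells were exposed to test samples for 3 h at 37 °C under 5% CO2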; assay type: cell-based; details: read-out: hCTR funct. EC50
[3] = molecular target: T3, human amylin receptor (amylin 3(a) receptor: human calcitonin receptor + RAMP-3) (Homo sapiens, UniProt O60896+P30988); test: Assay (II)a functional assay, human amylin receptor (CRE luciferase, BHK cells); assay type: cell-based; details: for EC50: read-out: hAmylin-R funct. EC50
T3 construct: expressed in transfected cells
T3 sequence (P30988 25-474): T1 sequence (P30988 25-474)
T3 sequence (O60896 24-148 partner): T1 sequence (O60896 24-148 partner)

[4] = Table 6, human functional selectivity (hCTR EC50 / hAmylin-R EC50)
[5] = Table 6a, human functional selectivity (hCTR EC50 / hAmylin-R EC50), at least 5
[6] = Table 6j, hCTR funct. EC50 / hAmylin-R funct. EC50
[7] = Table 6j, human amylin receptor functional
[8] = Table 6k, hCTR funct. EC50 / hAmylin-R funct. EC50
[9] = functional assay, human amylin receptor

| IC50 (human amylin receptor) [nM] | IC50 [1] [nM] | EC50 [2] [nM] | Ratio hCT/hAmylin funct. [3, 4] | Ratio hCT/hAmylin funct. [3, 5] | Ratio hCT/hAmylin funct. [3, 6] | EC50 [3, 7] [nM] | Ratio hCT/hAmylin funct. [3, 8] | EC50 [3, 9] [nM] | Ratio hCT/hAmylin binding (human amylin receptor; Table 7b, human calcitonin receptor binding IC50 divided by human amylin receptor binding IC50) | Ratio hCT/hAmylin binding (human amylin receptor; Table 7c, human calcitonin receptor binding IC50 divided by human amylin receptor binding IC50) | Ratio hCT/hAmylin binding (human amylin receptor; human binding ratio, included for comparison) | Ratio hCT/hAmylin funct. ([3]; Table 6i, hCTR funct. EC50 / hAmylin-R funct. EC50) | EC50 ([3]; Table 6i, human amylin receptor functional) [nM] | Structure (SMILES) |
| --- | --- | --- | --- | --- | --- | --- | --- | --- | --- | --- | --- | --- | --- | --- |
| 0.09 | 4.63 | 0.354 | 5.2 | 5.2 | 5.2 | 0.069 | 5.2 | – | – | – | – | – | – | CC[C@H](C)[C@H](NC(=O)[C@H](C)NC(=O)CNC(=O)[C@H](Cc1ccccc1)NC(=O)[C@H](CC(N)=O)NC(=O)[C@@H]1CCCN1C(=O)[C@H](CO)NC(=O)[C@H](CO)NC(=O)[C@H](Cc1c[nH]cn1)NC(=O)[C@H](CCCNC(=N)N)NC(=O)[C@H](CC(C)C)NC(=O)[C@H](Cc1ccccc1)NC(=O)[C@H](Cc1c[nH]cn1)NC(=O)[C@H](C)NC(=O)[C@H](CC(C)C)NC(=O)[C@H](CCCNC(=N)N)NC(=O)[C@H](CCC(N)=O)NC(=O)[C@@H](NC(=O)[C@H](C)NC(=O)[C@@H]1CSSC[C@H](NC(=O)[C@@H](N)CCCCNC(=O)CC[C@H](NC(=O)CCCCCCCCCCCCCCCCCCC(=O)O)C(=O)O)C(=O)N[C@@H](CC(N)=O)C(=O)N[C@@H]([C@@H](C)O)C(=O)N[C@@H](C)C(=O)N[C@@H]([C@@H](C)O)C(=O)N1)[C@@H](C)O)C(=O)N1CCC[C@H]1C(=O)N[C@@H](CO)C(=O)N[C@@H](CO)C(=O)N[C@H](C(=O)N[C@@H](CC(N)=O)C(=O)N[C@H](C(=O)NCC(=O)N1CCC[C@H]1C(=O)N[C@@H](CC(N)=O)C(=O)N[C@H](C(=O)N[C@@H](Cc1ccc(O)cc1)C(N)=O)[C@@H](C)O)C(C)C)[C@@H](C)O [Example 67] (H-K([γGlu-C20 diacid])CNTATCATQRLAHFLRHSSPNFGAIPSSTNVGPNTY-NH2; disulfide 2-7) |
| 0.088 | 5.66 | 0.932 | – | – | – | – | – | 0.054 | – | – | – | – | – | CC[C@H](C)[C@H](NC(=O)[C@H](C)NC(=O)CNC(=O)[C@H](Cc1ccccc1)NC(=O)[C@H](CC(N)=O)NC(=O)[C@@H]1CCCN1C(=O)[C@H](CO)NC(=O)[C@H](CO)NC(=O)[C@H](Cc1c[nH]cn1)NC(=O)[C@H](CCCNC(=N)N)NC(=O)[C@H](CC(C)C)NC(=O)[C@H](Cc1ccccc1)NC(=O)[C@H](Cc1c[nH]cn1)NC(=O)[C@H](C)NC(=O)[C@H](CC(C)C)NC(=O)[C@H](CCCNC(=N)N)NC(=O)[C@H](CCC(N)=O)NC(=O)[C@@H](NC(=O)[C@H](C)NC(=O)[C@@H]1CSSC[C@H](NC(=O)[C@@H](N)CCCCNC(=O)COCCOCCNC(=O)CC[C@H](NC(=O)CCCCCCCCCCCCCCCCCCC(=O)O)C(=O)O)C(=O)N[C@@H](CC(N)=O)C(=O)N[C@@H]([C@@H](C)O)C(=O)N[C@@H](C)C(=O)N[C@@H]([C@@H](C)O)C(=O)N1)[C@@H](C)O)C(=O)N1CCC[C@H]1C(=O)N[C@@H](CO)C(=O)N[C@@H](CO)C(=O)N[C@H](C(=O)N[C@@H](CC(N)=O)C(=O)N[C@H](C(=O)NCC(=O)N1CCC[C@H]1C(=O)N[C@@H](CC(N)=O)C(=O)N[C@H](C(=O)N[C@@H](Cc1ccc(O)cc1)C(N)=O)[C@@H](C)O)C(C)C)[C@@H](C)O [Example 68] (H-K([AEEA-γGlu-C20 diacid])CNTATCATQRLAHFLRHSSPNFGAIPSSTNVGPNTY-NH2; disulfide 2-7) |
| 0.048 | 1.54 | 0.527 | 9.4 | 9.4 | 9.4 | 0.056 | 9.4 | – | 32.0 | 32.0 | 32.0 | – | – | CC[C@H](C)[C@H](NC(=O)[C@H](C)NC(=O)CNC(=O)[C@H](Cc1ccccc1)NC(=O)[C@H](CC(N)=O)NC(=O)[C@@H]1CCCN1C(=O)[C@H](CO)NC(=O)[C@H](CO)NC(=O)[C@H](Cc1c[nH]cn1)NC(=O)[C@H](CCCNC(=N)N)NC(=O)[C@H](CC(C)C)NC(=O)[C@H](Cc1ccccc1)NC(=O)CNC(=O)[C@H](C)NC(=O)[C@H](CC(C)C)NC(=O)[C@H](CCCNC(=N)N)NC(=O)[C@H](CCC(N)=O)NC(=O)[C@@H](NC(=O)[C@H](C)NC(=O)[C@@H]1CSSC[C@H](NC(=O)[C@@H](N)CCCCNC(=O)COCCOCCNC(=O)CC[C@H](NC(=O)CCCCCCCCCCCCCCCCCCC(=O)O)C(=O)O)C(=O)N[C@@H](CC(N)=O)C(=O)N[C@@H]([C@@H](C)O)C(=O)N[C@@H](C)C(=O)N[C@@H]([C@@H](C)O)C(=O)N1)[C@@H](C)O)C(=O)N1CCC[C@H]1C(=O)N[C@@H](CO)C(=O)N[C@@H](CO)C(=O)N[C@H](C(=O)N1CCC[C@H]1C(=O)N[C@H](C(=O)NCC(=O)N[C@@H](CO)C(=O)N[C@@H](CC(N)=O)C(=O)N[C@H](C(=O)N[C@@H](Cc1ccc(O)cc1)C(N)=O)[C@@H](C)O)C(C)C)[C@@H](C)O [Example 71] (H-K([AEEA-γGlu-C20 diacid])CNTATCATQRLAGFLRHSSPNFGAIPSSTPVGSNTY-NH2; disulfide 2-7) |
| 0.939 | 137 | 16.8 | – | – | – | – | – | 0.405 | – | – | – | – | – | CC[C@H](C)[C@H](NC(=O)[C@H](C)NC(=O)CNC(=O)[C@H](Cc1ccccc1)NC(=O)[C@H](CC(N)=O)NC(=O)[C@@H]1CCCN1C(=O)[C@H](CO)NC(=O)[C@H](CO)NC(=O)[C@H](Cc1c[nH]cn1)NC(=O)[C@H](CCCNC(=N)N)NC(=O)[C@H](CC(C)C)NC(=O)[C@H](Cc1ccccc1)NC(=O)[C@H](CCCNC(=N)N)NC(=O)[C@H](C)NC(=O)[C@H](CC(C)C)NC(=O)[C@H](CCCNC(=N)N)NC(=O)[C@H](CCC(N)=O)NC(=O)[C@@H](NC(=O)[C@H](C)NC(=O)[C@@H]1CSSC[C@H](NC(=O)[C@@H](N)CCCCNC(=O)CC[C@H](NC(=O)CCCCCCCCCCCCCCCCCCC(=O)O)C(=O)O)C(=O)N[C@@H](CC(N)=O)C(=O)N[C@@H]([C@@H](C)O)C(=O)N[C@@H](C)C(=O)N[C@@H]([C@@H](C)O)C(=O)N1)[C@@H](C)O)C(=O)N1CCC[C@H]1C(=O)N[C@@H](CO)C(=O)N[C@@H](CO)C(=O)N[C@H](C(=O)N[C@@H](CC(N)=O)C(=O)N[C@H](C(=O)NCC(=O)N[C@@H](CO)C(=O)N[C@@H](CC(N)=O)C(=O)N[C@H](C(=O)N[C@@H](Cc1ccc(O)cc1)C(N)=O)[C@@H](C)O)C(C)C)[C@@H](C)O [Example 83] |
| 0.75 | 34.9 | 6.55 | 8.5 | 8.5 | 8.5 | – | 8.5 | – | – | – | – | 8.5 | 0.773 | CC[C@H](C)[C@H](NC(=O)[C@H](C)NC(=O)CNC(=O)[C@H](Cc1ccccc1)NC(=O)[C@H](CC(N)=O)NC(=O)[C@@H]1CCCN1C(=O)[C@H](CO)NC(=O)[C@H](CO)NC(=O)[C@H](Cc1c[nH]cn1)NC(=O)[C@H](CCCNC(=N)N)NC(=O)[C@H](CC(C)C)NC(=O)[C@H](Cc1ccccc1)NC(=O)[C@H](CCC(=O)O)NC(=O)[C@H](C)NC(=O)[C@H](CC(C)C)NC(=O)[C@H](CCCNC(=N)N)NC(=O)[C@H](CCC(N)=O)NC(=O)[C@@H](NC(=O)[C@H](C)NC(=O)[C@@H]1CSSC[C@H](NC(=O)[C@@H](N)CCCCNC(=O)CC[C@H](NC(=O)CC[C@H](NC(=O)CCCCCCCCCCCCCCCCCCC(=O)O)C(=O)O)C(=O)O)C(=O)N[C@@H](CC(N)=O)C(=O)N[C@@H]([C@@H](C)O)C(=O)N[C@@H](C)C(=O)N[C@@H]([C@@H](C)O)C(=O)N1)[C@@H](C)O)C(=O)N1CCC[C@H]1C(=O)N[C@@H](CO)C(=O)N[C@@H](CO)C(=O)N[C@H](C(=O)N[C@@H](CC(N)=O)C(=O)N[C@H](C(=O)NCC(=O)N[C@@H](CCCNC(=N)N)C(=O)N[C@@H](CC(N)=O)C(=O)N[C@H](C(=O)N[C@@H](Cc1ccc(O)cc1)C(N)=O)[C@@H](C)O)C(C)C)[C@@H](C)O [Example 88] (H-K([γGlu-γGlu-C20 diacid])CNTATCATQRLAEFLRHSSPNFGAIPSSTNVGRNTY-NH2; disulfide 2-7) |
